# Experimental data as given in patent US10525046B2 (ACADIA Pharmaceuticals Inc., priority 2003, dated 2020).
# pEC50: −log10 of the molar value.
# Legend:
# [1] = test system: hyperactivity induced by d-amphetamine; experiment: Amphetamine induced hyperactivity; format: in vivo; details: mice
# [2] = molecular target: T1, human D2 receptors (Homo sapiens, UniProt P14416); experiment: cell-based
# [3] = molecular target: human 5HT2A receptors (Homo sapiens, UniProt P28223)
# [4] = molecular target: T1, human D2 receptors; details: R-SAT agonist; short form of the D2 receptor; +/− standard deviation of three to eight determinations
# [5] = refractory schizophrenic patients; cited from earlier work
# [6] = test system: hyperactivity induced by MK-801 (dizocilpine); experiment: MK-801 induced hyperactivity; format: in vivo, rats
# Description: (§1) . In FIG. 2A and 2B, asterisks indicate statistical significance (p<0.05) compared to respective vehicle control. […]
# [7] = test system: spontaneous locomotion; experiment: Spontaneous locomotion; format: in vivo; details: s.c.; rats (FIG. 2A)
# Description: as §1
# [8] = test system: levodopa-associated dyskinesias and motor response fluctuations; experiment: Double blind, placebo controlled study in parkinsonian patients; format: in vivo; details: Patient Group II
# Description: […]. […] […]. The compound of formula (I) is administered once daily for four weeks, with the dose escalating once each week. Assessments are made on the first day of each dose escalation.
# The study is conducted on an […].
# Patients who participate in the study have particular characteristics. The patients are between 30 and 80 years of age, inclusively. The patients had been diagnosed with idiopathic Parkinson's disease based on the presence of a characteristic clinical history and neurological findings.
# The sample size is calculated for the primary endpoint: the Unified Parkinson's Disease Rating Scale (UPDRS) part III motor examination. […]. […] In this phase 2 study we will accept a two-sided alpha at a 0.05 significance level. Four patients will be added for the placebo group, totaling 21 subjects enrolled in the study.
# Patients enter the levodopa infusion optimal rate determination (dose finding) portion of the study as soon as all prohibited medication has been withdrawn for at least four weeks.
# Intravenous infusion of levodopa is conducted in an in-patient ward. […]. During the first and second days of optimal rate determination, two baseline UPDRS ratings are performed prior to levodopa infusion. […] Dyskinesia severity is similar to that experienced with each patient's usual therapeutic regimen. Levodopa will be administered by means of an indwelling intravenous catheter. The initial infusion rate of levodopa will not exceed 80 mg/hr.
# Levodopa infusions will ordinarily last up to 8 hours, but may be continued uninterrupted for several days or be repeated on other days to obtain reliable assessment of motor function. The peripheral decarboxylase inhibitor carbidopa (50 mg, given every 3 hours) is administered orally starting at least one hour prior to intravenous administration of levodopa and continuing until levodopa effects have worn off. […]
# Throughout the study, patients are evaluated weekly for drug safety and tolerability during their inpatient admission and two weeks after treatment for an outpatient follow-up visit. […]
# [9] = test system: remaining monoaminergic receptor subtypes; experiment: Intrinsic activity at remaining monoaminergic receptor subtypes
# [10] = test system: L-dopa induced dyskinesias; experiment: L-dopa induced dyskinesia in MPTP monkeys; details: s.c.; MPTP dyskinetic primates; dyskinetic movements scored as percentage of placebo (FIG. 3)
# Description: The use of 1-methyl-4-phenyl-1,2,3,6-tetrahydropyrilidine (MPTP) to induce parkinsonism in monkeys, coupled with prolonged administration of L-dopa induces severe dyskinesias.
# human 5HT2A receptors, sequence (P28223 whole entry): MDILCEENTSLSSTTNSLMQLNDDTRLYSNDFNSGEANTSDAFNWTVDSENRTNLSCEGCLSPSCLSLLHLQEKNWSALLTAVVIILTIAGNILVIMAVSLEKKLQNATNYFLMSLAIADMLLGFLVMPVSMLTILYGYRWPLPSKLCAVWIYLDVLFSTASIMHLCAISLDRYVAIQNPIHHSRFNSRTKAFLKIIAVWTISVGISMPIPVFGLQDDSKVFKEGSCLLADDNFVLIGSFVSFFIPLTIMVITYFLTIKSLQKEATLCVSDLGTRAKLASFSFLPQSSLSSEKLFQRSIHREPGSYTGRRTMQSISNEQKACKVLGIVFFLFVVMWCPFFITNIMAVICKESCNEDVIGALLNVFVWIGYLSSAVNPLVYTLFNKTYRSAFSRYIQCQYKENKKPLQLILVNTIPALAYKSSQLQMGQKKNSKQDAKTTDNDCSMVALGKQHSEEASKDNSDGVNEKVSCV
# T1 sequence (P14416 1-414 isoform P14416-2): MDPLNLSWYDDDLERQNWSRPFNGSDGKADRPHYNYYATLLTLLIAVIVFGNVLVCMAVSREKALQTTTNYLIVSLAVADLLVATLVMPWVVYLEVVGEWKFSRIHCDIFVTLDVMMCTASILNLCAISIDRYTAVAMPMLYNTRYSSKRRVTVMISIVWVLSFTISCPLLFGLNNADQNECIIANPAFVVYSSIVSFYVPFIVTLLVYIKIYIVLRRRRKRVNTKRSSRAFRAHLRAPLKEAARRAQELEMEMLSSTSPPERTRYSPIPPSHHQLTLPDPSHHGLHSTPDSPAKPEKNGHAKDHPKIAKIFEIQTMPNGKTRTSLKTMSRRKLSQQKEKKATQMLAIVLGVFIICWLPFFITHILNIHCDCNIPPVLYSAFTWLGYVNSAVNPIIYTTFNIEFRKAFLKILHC
smiles,measurement,setting,value
"O=C(CCCN1CCC(O)(c2ccc(Cl)cc2)CC1)c1ccc(F)cc1 [haloperidol, reference compound]","minimally significant dose reducing amphetamine hyperactivity, in combination",[1]; haloperidol s.c. with 10.0 mg/kg P.O. compound of formula (I),0.03 mg/kg
same,"minimally significant dose reducing amphetamine hyperactivity, alone","[1]; s.c., 3.0 mg/kg I.P. d-amphetamine",0.1 mg/kg
CC(C)C[C@H]1C(=O)N2CCC[C@H]2[C@]2(O)O[C@](NC(=O)[C@@H]3C=C4c5cccc6[nH]c(Br)c(c56)C[C@H]4N(C)C3)(C(C)C)C(=O)N12 [Bromocriptine],pEC50,[2],9.37
NCCc1ccc(O)c(O)c1 [Dopamine],Potency against serotonin 5-HT2A receptor (FIG. 1B),"[3]; R-SAT agonist, reference full agonist serotonin",no response
CCCN(CCC)CCc1cccc2c1CC(=O)N2 [Ropinirole],"Dopamine D2, —Log (EC50)",[4],8.19 +/− 0.58
same,"Serotonin 2A, —Log (EC50)",[3],6.85 +/− 0.77
CN1CCN(C2=Nc3cc(Cl)ccc3Nc3ccccc32)CC1 [Clozapine],average serum levels associated with therapeutic response,[5],≥ 250 ng/mL
"CC(C)COc1ccc(CNC(=O)N(Cc2ccc(F)cc2)C2CCN(C)CC2)cc1 [compound of formula (I), N-(1-methylpiperidin-4-yl)-N-(4-flourophenylmethyl)-N′-(4-(2-methylpropyloxy)phenylmethyl)carbamide]",effect on MK-801 hyperactivity,"[6]; i.p. administration, 1 mg/kg",attenuated MK-801 hyperactivity
same,minimum effective dose attenuating MK-801 hyperactivity,"[6]; p.o., rats (FIG. 2B)",10 mg/kg
same,minimum effective dose attenuating MK-801 hyperactivity,"[6]; s.c., rats (FIG. 2A)",1 mg/kg
same,doses reducing spontaneous locomotion,[7],≥ 3 mg/kg
same,effect on the beneficial effects of levodopa on parkinsonian symptoms,[8]; oral,potentiates the benefical effects of levodopa on parkinsonian symptoms
same,levodopa-associated dyskinesias and motor response fluctuations,"[8]; oral once daily, 30 to 300 mg escalating weekly",show a reducing in levodopa-associated dyskinesias and motor response fluctuations
same,tolerability,"[8]; oral, 30 to 300 mg",tolerate the compound of formula (I) at all doses administered
same,intrinsic activity at remaining monoaminergic receptor subtypes,[9],lacks intrinsic activity
same,effect on L-dopa induced dyskinesias,[10],significantly diminish L-dopa induced dyskinesias in a dose dependent manner
same,"effect on amphetamine hyperactivity, administered alone","[1]; 10.0 mg/kg P.O. and below, 3.0 mg/kg I.P. d-amphetamine",did not reduce hyperactivity
same,amphetamine hyperactivity with the combination,[1]; 10.0 mg/kg P.O. compound of formula (I) combined with s.c. haloperidol,completely reversed
